Drawing on BindingDB's records for doi:10.1021/jm801354e (University of Illinois At Chicago, 2009), this text covers EC50 and Ki for 3 molecules.

Structures are written as SMILES. pEC50, pKi: −log10 of the molar value. Counter-ions that a name gives are not always drawn. Bounds are passed on as bounds.

Assay [1] concerns the target T1, 5-hydroxytryptamine receptor 2C (Homo sapiens, UniProt P28335).
T1 sequence (P28335 whole entry): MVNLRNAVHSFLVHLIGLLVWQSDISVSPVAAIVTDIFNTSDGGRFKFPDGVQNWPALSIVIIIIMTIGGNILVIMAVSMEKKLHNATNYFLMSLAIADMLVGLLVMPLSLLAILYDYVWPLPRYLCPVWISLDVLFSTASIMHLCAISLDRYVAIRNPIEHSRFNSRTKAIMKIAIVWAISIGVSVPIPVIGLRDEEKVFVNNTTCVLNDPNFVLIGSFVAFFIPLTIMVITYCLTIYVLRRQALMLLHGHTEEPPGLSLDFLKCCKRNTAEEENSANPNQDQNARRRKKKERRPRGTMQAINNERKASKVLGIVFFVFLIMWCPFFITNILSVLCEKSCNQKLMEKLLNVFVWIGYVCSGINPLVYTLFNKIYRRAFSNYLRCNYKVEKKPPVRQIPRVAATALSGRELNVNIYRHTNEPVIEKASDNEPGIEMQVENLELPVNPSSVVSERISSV
The experiment in a line: Agonist activity at human 5HT2C receptor expressed in HEK293 cells assessed as calcium flux by FLIPR assay.

Assay [2] addresses T2, 5-hydroxytryptamine receptor 2B (Homo sapiens, UniProt P41595). Put plainly: Displacement of [3H]LSD from human 5HT2B receptor.
The target of assay [3] is T1, 5-hydroxytryptamine receptor 2C. The experiment in a line: Displacement of [3H]mesulergine from 5HT2C receptor. (Displacement assays read how much labelled ligand stays bound in the presence of the test substance.)
Assay [4] has as its target T3, 5-hydroxytryptamine receptor 2A (Homo sapiens, UniProt P28223). The experiment in a line: Displacement of [3H]ketanserin from human 5HT2A receptor.
The target in assay [5] is Sodium-dependent dopamine transporter (Homo sapiens, UniProt Q01959). The experiment in a line: Displacement of [3H]WIN-35428 from DAT.
The target of assay [6] is T3, 5-hydroxytryptamine receptor 2A. The experiment in a line: Agonist activity at human 5HT2A receptor expressed in HEK293 cells assessed as calcium flux by FLIPR assay. On the technique in general: A change in cytosolic calcium serves as a functional read-out for many receptors and channels.
Assay [7] has as its target T2, 5-hydroxytryptamine receptor 2B. Put plainly: Agonist activity at human 5HT2B receptor expressed in HEK293 cells assessed as calcium flux by FLIPR assay.
Assay [8] deals with Sodium-dependent serotonin transporter (Homo sapiens, UniProt P31645). The experiment in a line: Displacement of [3H]citalopram from SERT.
The target in assay [9] is Sodium-dependent noradrenaline transporter (Homo sapiens, UniProt P23975). Put plainly: Displacement of [3H]nisoxetine from NET.

What is called pEC50 is the negative decadic logarithm of the EC50, by convention in mol/L. One may read the pKi as the Ki on a negative log10 scale, so that one unit is a factor of ten. Read a low pKi as a large Ki.

Sodium-dependent dopamine transporter, sequence (Q01959 whole entry): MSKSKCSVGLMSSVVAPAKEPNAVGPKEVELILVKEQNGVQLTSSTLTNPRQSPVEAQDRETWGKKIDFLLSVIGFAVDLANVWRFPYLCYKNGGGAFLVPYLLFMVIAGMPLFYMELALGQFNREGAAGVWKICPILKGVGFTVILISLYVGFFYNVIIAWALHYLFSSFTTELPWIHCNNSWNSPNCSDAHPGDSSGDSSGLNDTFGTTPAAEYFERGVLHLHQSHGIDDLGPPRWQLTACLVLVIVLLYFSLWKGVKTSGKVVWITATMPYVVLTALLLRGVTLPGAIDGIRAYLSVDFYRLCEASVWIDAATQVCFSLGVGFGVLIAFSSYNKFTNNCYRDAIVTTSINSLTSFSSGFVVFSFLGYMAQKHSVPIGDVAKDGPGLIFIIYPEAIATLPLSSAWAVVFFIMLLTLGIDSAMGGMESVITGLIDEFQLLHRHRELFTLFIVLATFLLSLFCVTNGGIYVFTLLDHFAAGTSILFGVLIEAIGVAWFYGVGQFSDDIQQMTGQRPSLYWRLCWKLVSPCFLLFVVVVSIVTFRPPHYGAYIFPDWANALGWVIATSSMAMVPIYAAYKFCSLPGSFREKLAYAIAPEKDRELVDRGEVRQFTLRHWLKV
T3 sequence (P28223 whole entry): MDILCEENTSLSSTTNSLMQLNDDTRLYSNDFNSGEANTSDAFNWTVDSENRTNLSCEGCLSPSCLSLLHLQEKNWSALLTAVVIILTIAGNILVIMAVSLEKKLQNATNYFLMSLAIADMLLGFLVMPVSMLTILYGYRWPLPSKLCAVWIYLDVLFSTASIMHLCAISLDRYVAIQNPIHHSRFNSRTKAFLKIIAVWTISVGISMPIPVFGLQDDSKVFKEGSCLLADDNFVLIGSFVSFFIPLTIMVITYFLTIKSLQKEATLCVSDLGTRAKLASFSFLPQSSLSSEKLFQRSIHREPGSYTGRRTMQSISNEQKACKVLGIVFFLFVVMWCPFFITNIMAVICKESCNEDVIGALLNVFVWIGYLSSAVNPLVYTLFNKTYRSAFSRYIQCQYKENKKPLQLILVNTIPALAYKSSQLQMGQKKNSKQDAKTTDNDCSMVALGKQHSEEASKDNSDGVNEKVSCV
T2 sequence (P41595 whole entry): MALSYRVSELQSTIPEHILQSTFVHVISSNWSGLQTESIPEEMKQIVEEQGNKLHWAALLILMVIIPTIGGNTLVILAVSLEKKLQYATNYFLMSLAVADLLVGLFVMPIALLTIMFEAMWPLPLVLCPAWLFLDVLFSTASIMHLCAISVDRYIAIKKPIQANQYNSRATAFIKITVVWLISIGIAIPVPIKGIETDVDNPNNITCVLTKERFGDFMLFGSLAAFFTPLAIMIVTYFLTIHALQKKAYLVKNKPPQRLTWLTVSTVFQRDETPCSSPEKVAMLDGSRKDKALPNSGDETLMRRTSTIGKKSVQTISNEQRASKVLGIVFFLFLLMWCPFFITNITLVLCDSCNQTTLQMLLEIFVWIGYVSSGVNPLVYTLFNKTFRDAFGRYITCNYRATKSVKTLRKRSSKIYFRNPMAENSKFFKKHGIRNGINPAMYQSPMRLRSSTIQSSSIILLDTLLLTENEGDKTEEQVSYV
Sodium-dependent serotonin transporter, sequence (P31645 whole entry): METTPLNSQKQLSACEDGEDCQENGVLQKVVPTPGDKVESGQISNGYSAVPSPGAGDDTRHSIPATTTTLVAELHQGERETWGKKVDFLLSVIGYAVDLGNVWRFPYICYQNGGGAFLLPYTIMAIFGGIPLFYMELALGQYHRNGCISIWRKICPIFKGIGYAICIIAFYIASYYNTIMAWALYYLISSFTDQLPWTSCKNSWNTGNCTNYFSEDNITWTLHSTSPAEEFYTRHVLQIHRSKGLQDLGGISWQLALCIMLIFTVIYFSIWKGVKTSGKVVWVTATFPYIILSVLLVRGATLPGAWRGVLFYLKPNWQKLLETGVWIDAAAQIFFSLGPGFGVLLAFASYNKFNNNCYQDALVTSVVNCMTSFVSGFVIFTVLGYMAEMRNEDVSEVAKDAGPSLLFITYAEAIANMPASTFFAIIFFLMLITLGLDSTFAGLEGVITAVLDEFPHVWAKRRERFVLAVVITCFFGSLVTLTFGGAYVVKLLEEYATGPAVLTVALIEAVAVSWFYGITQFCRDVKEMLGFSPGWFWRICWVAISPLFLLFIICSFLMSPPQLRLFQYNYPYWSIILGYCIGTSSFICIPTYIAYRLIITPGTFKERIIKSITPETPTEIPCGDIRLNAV
Sodium-dependent noradrenaline transporter, sequence (P23975 whole entry): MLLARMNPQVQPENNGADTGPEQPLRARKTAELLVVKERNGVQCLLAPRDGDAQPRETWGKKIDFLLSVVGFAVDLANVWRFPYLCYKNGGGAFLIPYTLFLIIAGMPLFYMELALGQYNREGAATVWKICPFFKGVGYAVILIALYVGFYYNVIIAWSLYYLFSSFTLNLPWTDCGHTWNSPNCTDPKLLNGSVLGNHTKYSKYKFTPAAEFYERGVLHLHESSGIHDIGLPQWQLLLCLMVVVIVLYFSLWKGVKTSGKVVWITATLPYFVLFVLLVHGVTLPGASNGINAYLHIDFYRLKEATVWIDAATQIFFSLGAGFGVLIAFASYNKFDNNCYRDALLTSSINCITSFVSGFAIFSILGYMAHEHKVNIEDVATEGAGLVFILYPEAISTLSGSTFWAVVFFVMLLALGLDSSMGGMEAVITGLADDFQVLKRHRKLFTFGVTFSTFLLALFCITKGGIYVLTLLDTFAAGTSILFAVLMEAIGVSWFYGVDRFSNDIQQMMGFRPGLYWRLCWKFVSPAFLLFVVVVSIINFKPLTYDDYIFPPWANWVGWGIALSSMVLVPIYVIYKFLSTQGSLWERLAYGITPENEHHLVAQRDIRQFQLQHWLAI

`NC[C@H]1C[C@@H]1c1ccc(F)cc1` (relative stereo) [trans-[2-(4-Fluorophenyl)cyclopropyl]methylamine Hydrochloride]: the pEC50 is 8.27 in [1], 6.29 in [6] and 7.68 in assay [7]. Besides, the pKi is 7.05 in [2]; 6.62 in assay [3]; 5.56 in [4]; 5.49 in assay [5]; 5.57 in [8]; 5.17 in assay [9].

Consider `Cc1cccc([C@H]2C[C@@H]2CN)c1` (relative stereo) [trans-[2-(3-Methylphenyl)cyclopropyl]methylamine Hydrochloride], for which the pEC50 in [1] is 8.32; in assay [6] it was 6.23; in assay [7], 7.19. Besides, the pKi in assay [2] was 7.07; in assay [3] it was 6.57; in assay [4], 5.73; in [5], 5.27; in [8], 5.26; in [9] it was below 5.00.

On to `NC[C@H]1C[C@@H]1c1ccc(F)cc1Cl` (relative stereo) [trans-[2-(2-Chloro-4-fluorophenyl)cyclopropyl]methylamine Hydrochloride], for which the values for the pEC50 in assay [1], in assay [6] and in [7] were 8.52, 7.04 and 7.66, respectively. The pKi in [2] was 7.80; in [3], 6.69; in assay [4], 6.60; in assay [5], below 5.00; in assay [8], 5.98; in assay [9], below 5.00.
